The values below come from patent US20220251141A1, “IMMUNOMODULATORS” (Bristol-Myers Squibb Company, priority 2019, published 2022).

Where a name gives a salt, the structure may show the parent alone. Numbered stars: 1 amine (or outer) side, 2 acyl side, 3 side chain; on linkers, the order of the positions; unused ones are H or OH. Bridge positions count the residues as written; N and C are the ends. Square brackets hold non-standard residues; d marks the D form. Side chains are listed from the residue outwards. Peptide text beside a SMILES is read from it. * marks the point of attachment. Trp(1-CH2CO2Me) = COC(=O)Cn1cc(C[C@H](N)C(=O)O)c2ccccc21; Trp(1-CH2COOH) = N[C@@H](Cc1cn(CC(=O)O)c2ccccc12)C(=O)O; Trp(1-Me) = Cn1cc(C[C@H](N)C(=O)O)c2ccccc21; X2 = C/C(=N\C#N)NC[C@H](N[*:1])C(=O)[*:2]; Phe(4-F) = N[C@@H](Cc1ccc(F)cc1)C(=O)O; Hyp = O=C(O)[C@@H]1C[C@@H](O)CN1; Myristoyl = CCCCCCCCCCCCCC(=O)*; NMeNle = CCCC[C@H](NC)C(=O)O; Pen = CC(C)(S)[C@H](N)C(=O)O; Ethoxycarbonyl = CCOC(=O)*; Pip = O=C(O)[C@@H]1CCCCN1; NMeA = CN[C@@H](C)C(=O)O; X7 = COc1ccc(CN*)c(OC)c1; Dab = NCC[C@H](N)C(=O)O; Dap = NC[C@H](N)C(=O)O; CO = O=C([*:1])[*:2]; Piv = CC(C)(C)C(=O)*; Tfa = O=C(C(F)(F)F)*; N(Me)OMe = CON(C)*; X3 = O=C(OCCF)*

This assay deals with T1, PD-1/PD-L1 (Homo sapiens, UniProt Q9NZQ7).
T1 construct: TVMV protease site linker (C); made in house; host or cells: HEK293T cells
As to the kind of experiment: PD-1/PD-L1 Homogenous Time-Resolved Fluorescence (HTRF) binding assay. The conditions noted are these: PD-L1-His 10 nM final, PD-1-Ig 20 nM final; inhibitors pre-incubated with PD-L1-His for 15 m. An excerpt: The ability of the compounds of formula (I) to bind to PD-L1 was investigated using a PD-1/PD-L1 Homogenous Time-Resolved Fluorescence (HTRF) binding assay.
The interaction of PD-1 and PD-L1 can be assessed using soluble, purified preparations of the extracellular domains of the two proteins. The PD-1 and PD-L1 protein extracellular domains were expressed as fusion proteins with detection tags, for PD-1, the tag was the Fc portion of Immunoglobulin (PD-1-Ig) and for PD-L1 it was the 6 histidine motif (PD-L1-His). All binding studies were performed in an HTRF assay buffer consisting of dPBS supplemented with 0.1% […] bovine serum albumin and 0.05% (v/v) Tween-20. For the h/PD-L1-His binding assay, inhibitors were pre-incubated with PD-L1-His (10 nM final) for 15 m in 4 μl of assay buffer, followed by addition of PD-1-Ig (20 nM final) in 1 μl of assay buffer and further incubation for 15 m. HTRF detection was achieved using europium cryptate-labeled anti-Ig (1 nM final) and allophycocyanin (APC) labeled anti-His (20 nM final). Antibodies were diluted in HTRF detection buffer and 5 μl was dispensed on top of the binding reaction. The reaction mixture was allowed to equilibrate for 30 minutes and the resulting signal (665 nm/620 nm ratio) was obtained using an EnVision fluorometer. Additional binding assays were established between the human proteins PD-1-Ig/PD-L2-His (20 & 5 nM, respectively) and CD80-His/PD-L1-Ig (100 & 10 nM, respectively).
Recombinant Proteins: Human PD-1 (25-167) with a C-terminal human Fc domain of immunoglobulin G (Ig) epitope tag [hPD-1 (25-167)-3S-IG] and human PD-L1 (18-239) with a C-terminal His epitope tag [hPD-L1(18-239)-TVMV-His] were expressed in HEK293T cells and purified sequentially by Protein A affinity chromatography and size exclusion chromatography. Human PD-L2-His and CD80-His was obtained through commercial sources.
Table 3 lists the IC50 values for representative examples of this disclosure measured in the PD-1/PD-L1 Homogenous Time-Resolved Fluorescence (HTRF) binding assay.
For orientation: In TR-FRET formats the signal depends on donor and acceptor labels being close together.
Take `CCCC[C@H]1C(=O)N(C)[C@@H](CCCC)C(=O)N[C@@H](CC(C)C)C(=O)N[C@H](C(=O)NCC(N)=O)CSCC(=O)N[C@@H](Cc2ccc(O)cc2)C(=O)N(C)[C@@H](C)C(=O)N[C@@H](CC(N)=O)C(=O)N2CCC[C@H]2C(=O)N[C@@H](CNC(=O)NCc2ccc(OC)cc2OC)C(=O)N[C@@H](CC(C)C)C(=O)N2C[C@H](O)C[C@H]2C(=O)N[C@@H](Cc2c[nH]c3ccccc23)C(=O)N[C@@H](CCN)C(=O)N[C@@H](Cc2cn(CC(=O)O)c3ccccc23)C(=O)N1C` [Example 1043] ({CH2CO}-Y[NMeA]NP[Dap]([CO-X7])L[Hyp]W[Dab][Trp(1-CH2COOH)][NMeNle][NMeNle]LCG-NH2; thioether N-14): the IC50 (commonly the concentration at which inhibition is half-maximal) came out at 3 nM. Then `CCCC[C@H]1C(=O)N(C)[C@@H](CCCC)C(=O)N[C@@H](CC(C)C)C(=O)N[C@H](C(=O)NCC(N)=O)CSCC(=O)N[C@@H](Cc2ccc(O)cc2)C(=O)N(C)[C@@H](C)C(=O)N[C@@H](CC(N)=O)C(=O)N2CCC[C@H]2C(=O)N[C@@H](CNC(=O)OCCF)C(=O)N[C@@H](CC(C)C)C(=O)N2C[C@H](O)C[C@H]2C(=O)N[C@@H](Cc2c[nH]c3ccccc23)C(=O)N[C@@H](CCNC(=O)OCCF)C(=O)N[C@@H](Cc2cn(CC(=O)OC)c3ccccc23)C(=O)N1C` [Example 1012] ({CH2CO}-Y[NMeA]NP[Dap](X3)L[Hyp]W[Dab](X3)[Trp(1-CH2CO2Me)][NMeNle][NMeNle]LCG-NH2; thioether N-14), with 19 nM. The compound `CCCC[C@H]1C(=O)N(C)[C@@H](CCCC)C(=O)N[C@@H](CC(C)C)C(=O)N[C@H](C(N)=O)C(C)(C)SCC(=O)N[C@@H](Cc2ccc(F)cc2)C(=O)N2CCCC[C@H]2C(=O)N[C@@H](CC(N)=O)C(=O)N2CCC[C@H]2C(=O)N[C@@H](CNC(=O)C(C)(C)C)C(=O)N[C@@H](CC(C)C)C(=O)N2C[C@H](O)C[C@H]2C(=O)N[C@@H](Cc2c[nH]c3ccccc23)C(=O)N[C@@H](CCN)C(=O)N[C@@H](Cc2cn(CC(=O)O)c3ccccc23)C(=O)N1C` [Example 20010] ({CH2CO}-[Phe(4-F)][Pip]NP[Dap](Piv)L[Hyp]W[Dab][Trp(1-CH2COOH)][NMeNle][NMeNle]L[Pen]-NH2; thioether N-14) showed an IC50 of 4.9 nM. This IC50 is about 3.9-fold lower than that of the compound before.

`CCCC[C@H]1C(=O)N(C)[C@@H](CCCC)C(=O)N[C@@H](CC(C)C)C(=O)N[C@H](C(N)=O)C(C)(C)SCC(=O)N[C@@H](Cc2ccc(F)cc2)C(=O)N2CCCC[C@H]2C(=O)N[C@@H](CC(=O)O)C(=O)N2CCC[C@H]2C(=O)N[C@@H](CNC(=O)C(C)(C)C)C(=O)N[C@@H](CC(C)C)C(=O)N2C[C@H](O)C[C@H]2C(=O)N[C@@H](Cc2c[nH]c3ccccc23)C(=O)N[C@@H](CCN)C(=O)N[C@@H](Cc2cn(C)c3ccccc23)C(=O)N1C` [Example 20210] ({CH2CO}-[Phe(4-F)][Pip]DP[Dap](Piv)L[Hyp]W[Dab][Trp(1-Me)][NMeNle][NMeNle]L[Pen]-NH2; thioether N-14) had a 50% inhibitory concentration (IC50) of 16.4 nM. Then `CCCC[C@H]1C(=O)N(C)[C@@H](CCCC)C(=O)N[C@@H](CC(C)C)C(=O)N[C@H](C(N)=O)CSCC(=O)N[C@@H](Cc2ccc(F)cc2)C(=O)N2CCCC[C@H]2C(=O)N[C@@H](CC(=O)O)C(=O)N2CCC[C@H]2C(=O)N[C@@H](CNC(=O)C(C)(C)C)C(=O)N[C@@H](CC(C)C)C(=O)N2C[C@H](O)C[C@H]2C(=O)N[C@@H](Cc2c[nH]c3ccccc23)C(=O)N[C@@H](CCN)C(=O)N[C@@H](Cc2cn(CC(=O)O)c3ccccc23)C(=O)N1C` [Example 20050] ({CH2CO}-[Phe(4-F)][Pip]DP[Dap](Piv)L[Hyp]W[Dab][Trp(1-CH2COOH)][NMeNle][NMeNle]LC-NH2; thioether N-14), with 10.4 nM; and `CCCC[C@H]1C(=O)N(C)[C@@H](CCCC)C(=O)N[C@@H](CCC(=O)O)C(=O)N[C@H](C(N)=O)CSCC(=O)N[C@@H](Cc2ccc(F)cc2)C(=O)N2CCCC[C@H]2C(=O)N[C@@H](CC(N)=O)C(=O)N2CCC[C@H]2C(=O)N[C@@H](CNC(=O)C(C)(C)C)C(=O)N[C@@H](CC(C)C)C(=O)N2C[C@H](O)C[C@H]2C(=O)N[C@@H](Cc2c[nH]c3ccccc23)C(=O)N[C@@H](CCNC(=O)C(C)(C)C)C(=O)N[C@@H](Cc2cn(CC(=O)O)c3ccccc23)C(=O)N1C` [Example 20030] ({CH2CO}-[Phe(4-F)][Pip]NP[Dap](Piv)L[Hyp]W[Dab](Piv)[Trp(1-CH2COOH)][NMeNle][NMeNle]EC-NH2; thioether N-14), with 7.8 nM; and `CCCC[C@H]1C(=O)N(C)[C@@H](CCCC)C(=O)N[C@@H](CC(C)C)C(=O)N[C@H](C(N)=O)C(C)(C)SCC(=O)N[C@@H](Cc2ccc(F)cc2)C(=O)N2CCCC[C@H]2C(=O)N[C@@H](CC(=O)O)C(=O)N2CCC[C@H]2C(=O)N[C@@H](CNC(=O)C(C)(C)C)C(=O)N[C@@H](CC(C)C)C(=O)N2C[C@H](O)C[C@H]2C(=O)N[C@@H](Cc2c[nH]c3ccccc23)C(=O)N[C@@H](CCN)C(=O)N[C@@H](Cc2cn(CC(=O)O)c3ccccc23)C(=O)N1C` [Example 20060] ({CH2CO}-[Phe(4-F)][Pip]DP[Dap](Piv)L[Hyp]W[Dab][Trp(1-CH2COOH)][NMeNle][NMeNle]L[Pen]-NH2; thioether N-14), with 10.4 nM.

Regarding `CCCCCCCCCCCCCC(=O)NCC[C@@H]1NC(=O)[C@H](Cc2c[nH]c3ccccc23)NC(=O)[C@@H]2C[C@@H](O)CN2C(=O)[C@H](CC(C)C)NC(=O)[C@H](CNC(=O)CCCCCCCCCCCCC)NC(=O)[C@@H]2CCCN2C(=O)[C@H](CC(N)=O)NC(=O)[C@H](C)N(C)C(=O)[C@H](Cc2ccc(O)cc2)NC(=O)CSC[C@@H](C(=O)NCC(N)=O)NC(=O)[C@H](CC(C)C)NC(=O)[C@H](CCCC)N(C)C(=O)[C@H](CCCC)N(C)C(=O)[C@H](Cc2cn(CC(=O)OC)c3ccccc23)NC1=O` [Example 1005] ({CH2CO}-Y[NMeA]NP[Dap](Myristoyl)L[Hyp]W[Dab](Myristoyl)[Trp(1-CH2CO2Me)][NMeNle][NMeNle]LCG-NH2; thioether N-14), the IC50 was above 10000 nM. Then `CCCC[C@H]1C(=O)N(C)[C@@H](CCCC)C(=O)N[C@@H](CC(C)C)C(=O)N[C@H](C(=O)NCC(N)=O)CSCC(=O)N[C@@H](Cc2ccc(O)cc2)C(=O)N(C)[C@@H](C)C(=O)N[C@@H](CC(N)=O)C(=O)N2CCC[C@H]2C(=O)N[C@@H](CNC(=O)N(C)OC)C(=O)N[C@@H](CC(C)C)C(=O)N2C[C@H](O)C[C@H]2C(=O)N[C@@H](Cc2c[nH]c3ccccc23)C(=O)N[C@@H](CCNC(=O)N(C)OC)C(=O)N[C@@H](Cc2cn(CC(=O)OC)c3ccccc23)C(=O)N1C` [Example 1036] ({CH2CO}-Y[NMeA]NP[Dap]([CO-N(Me)OMe])L[Hyp]W[Dab]([CO-N(Me)OMe])[Trp(1-CH2CO2Me)][NMeNle][NMeNle]LCG-NH2; thioether N-14), with 1.4 nM. In the case of `CCCC[C@H]1C(=O)N(C)[C@@H](CCCC)C(=O)N[C@@H](CC(C)C)C(=O)N[C@H](C(=O)NCC(N)=O)CSCC(=O)N[C@@H](Cc2ccc(O)cc2)C(=O)N(C)[C@@H](C)C(=O)N[C@@H](CC(N)=O)C(=O)N2CCC[C@H]2C(=O)N[C@@H](CNC(=O)OCC)C(=O)N[C@@H](CC(C)C)C(=O)N2C[C@H](O)C[C@H]2C(=O)N[C@@H](Cc2c[nH]c3ccccc23)C(=O)N[C@@H](CCNC(=O)OCC)C(=O)N[C@@H](Cc2cn(CC(=O)OC)c3ccccc23)C(=O)N1C` [Example 1010] ({CH2CO}-Y[NMeA]NP[Dap](Ethoxycarbonyl)L[Hyp]W[Dab](Ethoxycarbonyl)[Trp(1-CH2CO2Me)][NMeNle][NMeNle]LCG-NH2; thioether N-14) it was 3.9 nM; in that of `CCCC[C@H]1C(=O)N(C)[C@@H](CCCC)C(=O)N[C@@H](CC(C)C)C(=O)N[C@H](C(=O)NCC(N)=O)CSCC(=O)N[C@@H](Cc2ccc(O)cc2)C(=O)N(C)[C@@H](C)C(=O)N[C@@H](CC(N)=O)C(=O)N2CCC[C@H]2C(=O)N[C@@H](CNC(=O)C(F)(F)F)C(=O)N[C@@H](CC(C)C)C(=O)N2C[C@H](O)C[C@H]2C(=O)N[C@@H](Cc2c[nH]c3ccccc23)C(=O)N[C@@H](CCN)C(=O)N[C@@H](Cc2cn(CC(=O)O)c3ccccc23)C(=O)N1C` [Example 1046] ({CH2CO}-Y[NMeA]NP[Dap](Tfa)L[Hyp]W[Dab][Trp(1-CH2COOH)][NMeNle][NMeNle]LCG-NH2; thioether N-14), 2.6 nM. In the case of `CCCC[C@H]1C(=O)N(C)[C@@H](CCCC)C(=O)N[C@@H](CC(C)C)C(=O)N[C@H](C(=O)NCC(N)=O)CSCC(=O)N[C@@H](Cc2ccc(O)cc2)C(=O)N(C)[C@@H](C)C(=O)N[C@@H](CC(N)=O)C(=O)N2CCC[C@H]2C(=O)N[C@@H](CN/C(C)=N/C#N)C(=O)N[C@@H](CC(C)C)C(=O)N2C[C@H](O)C[C@H]2C(=O)N[C@@H](Cc2c[nH]c3ccccc23)C(=O)N[C@@H](CCN)C(=O)N[C@@H](Cc2cn(CC(=O)O)c3ccccc23)C(=O)N1C` [Example 1009] ({CH2CO}-Y[NMeA]NP[X2]L[Hyp]W[Dab][Trp(1-CH2COOH)][NMeNle][NMeNle]LCG-NH2; thioether N-14) it was 5.5 nM.
